From ChEMBL document CHEMBL4138121, “Selective photocytotoxicity of anthrols on cancer stem-like cells: The effect of quinone methides or reactive oxygen species” (Eur J Med Chem, 2017)
Active and inactive are the calls of the source. The calls are words filed in the database; no cut-off is given here.

How the values were obtained:
[1] = Photocytotoxicity against HMLE-shGFP cells assessed as growth inhibition irradiated at 350 nm at 4, 24, 48 hrs post compound addition for 5 mins measured after 72 hrs by MTT assay; assay type: cell-based; conditions: Homo sapiens, light or radiation study
[2] = Drug uptake in cytoplasm of HMLE-shGFP cells at 10 uM in absence of irradiation measured after 2 to 3 hrs by confocal microscopic method; assay type: ADME, subcellular; conditions: human
Calf thymus DNA [3] = test: Binding affinity to calf thymus DNA at 4.2 x 10^-5 M in presence of irradiation at 420 nm for 5 mins by fluorescence spectrocopic method; assay type: nucleic-acid assay; conditions: Bos taurus
[4] = Drug uptake in cytoplasm of HMLE-shGFP cells at 5 uM irradiated at 420 nm for 5 mins measured after 2 to 3 hrs by confocal microscopic method; assay type: ADME, subcellular; conditions: human
[5] = Drug uptake in nucleus of HMLE-shGFP cells at 5 uM irradiated at 420 nm for 5 mins measured after 2 to 3 hrs by confocal microscopic method; assay type: ADME, subcellular; conditions: human
[6] = Cell cycle arrest in HMLE-shGFP cells assessed as delay in S/G2 phase at 5 uM irradiated at 420 nm at 4 hrs post compound addition for 5 mins measured after 24 to 48 hrs by propidium iodide staining-based flow cytometric method; conditions: human
HMLE [7] = test: Cell cycle arrest in HMLE-shEcad cells assessed as delay in S/G2 phase at 5 uM irradiated at 420 nm at 4 hrs post compound addition for 5 mins measured after 24 to 48 hrs by propidium iodide staining-based flow cytometric method; assay type: functional; conditions: Homo sapiens
Calf thymus DNA [8] = test: Binding affinity to calf thymus DNA at 4.2 x 10^-5 M by fluorescence spectrocopic method; assay type: nucleic-acid assay; conditions: Bos taurus
MCF7 [9] = test: Photocytotoxicity against human MCF7 cells assessed as growth inhibition irradiated at 420 nm at 4, 24, 48 hrs post compound addition for 5 mins measured after 72 hrs by MTT assay; assay type: functional, cell-based; conditions: MCF7, light or radiation study
Calf thymus DNA [10] = test: Binding affinity to calf thymus DNA at 4.2 x 10^-5 M by UV-vis spectrocopic method; assay type: nucleic-acid assay; conditions: Bos taurus
HCT-116 [11] = test: Photocytotoxicity against human HCT116 cells assessed as growth inhibition irradiated at 420 nm at 4, 24, 48 hrs post compound addition for 5 mins measured after 72 hrs by MTT assay; assay type: functional, cell-based; conditions: HCT-116, light or radiation study
[12] = Drug uptake in nucleus of HMLE-shGFP cells at 10 uM in absence of irradiation measured after 2 to 3 hrs by confocal microscopic method; assay type: ADME, subcellular; conditions: human
[13] = Dark toxicity against human MCF7 cells after 72 hrs by MTT assay; assay type: cell-based
NCI-H460 [14] = test: Photocytotoxicity against human H460 cells assessed as growth inhibition irradiated at 350 nm at 4, 24, 48 hrs post compound addition for 5 mins measured after 72 hrs by MTT assay; assay type: functional, cell-based; conditions: NCI-H460, light or radiation study
[15] = Dark toxicity against human HCT116 cells after 72 hrs by MTT assay; assay type: cell-based, HCT-116
[16] = Photocytotoxicity against HMLE-shGFP cells assessed as growth inhibition irradiated at 420 nm at 4, 24, 48 hrs post compound addition for 5 mins measured after 72 hrs by MTT assay; assay type: cell-based; conditions: Homo sapiens, light or radiation study
[17] = Cell cycle arrest in HMLE-shEcad cells at 1 to 5 uM after 24 to 48 hrs in absence of irradiation by propidium iodide staining-based flow cytometric method; conditions: human
[18] = Drug uptake in intracellular membranes of HMLE-shGFP cells at 5 uM irradiated at 420 nm for 5 mins measured after 2 to 3 hrs by confocal microscopic method; assay type: ADME, cell membranes, Intracellular membrane; conditions: human
[19] = Drug uptake in plasma membranes of HMLE-shGFP cells at 5 uM irradiated at 420 nm for 5 mins measured after 2 to 3 hrs by confocal microscopic method; assay type: ADME, cell membranes, Plasma membrane; conditions: human
[20] = Photocytotoxicity against HMLE-shEcad cells assessed as growth inhibition irradiated at 420 nm at 4, 24, 48 hrs post compound addition for 5 mins measured after 72 hrs by MTT assay; assay type: functional, cell-based; conditions: Homo sapiens, light or radiation study
NCI-H460 [21] = test: Photocytotoxicity against human H460 cells assessed as growth inhibition irradiated at 420 nm at 4, 24, 48 hrs post compound addition for 5 mins measured after 72 hrs by MTT assay; assay type: functional, cell-based; conditions: NCI-H460, light or radiation study
MCF7 [22] = test: Photocytotoxicity against human MCF7 cells assessed as growth inhibition irradiated at 350 nm at 4, 24, 48 hrs post compound addition for 5 mins measured after 72 hrs by MTT assay; assay type: functional, cell-based; conditions: MCF7, light or radiation study
HCT-116 [23] = test: Photocytotoxicity against human HCT116 cells assessed as growth inhibition irradiated at 350 nm at 4, 24, 48 hrs post compound addition for 5 mins measured after 72 hrs by MTT assay; assay type: functional, cell-based; conditions: HCT-116, light or radiation study
[24] = Dark toxicity against HMLE-shEcad cells after 72 hrs by MTT assay; assay type: cell-based; conditions: human
[25] = Dark toxicity against HMLE-shGFP cells after 72 hrs by MTT assay; assay type: cell-based; conditions: human
[26] = Cytotoxicity against HMLE-shGFP cells at 10 uM irradiated at 420 nm at 4 hrs post compound addition for 5 mins measured after 48 hrs by propidium iodide staining-based flow cytometric method; assay type: cell-based; conditions: human
SUM-159-PT [27] = test: Cell cycle arrest in human SUM159 cells in presence of irradiation; assay type: functional, cell-based
SUM-159-PT [28] = test: Photocytotoxicity against human SUM159 cells assessed as growth inhibition irradiated at 420 nm at 4, 24, 48 hrs post compound addition for 5 mins measured after 72 hrs by MTT assay; assay type: functional, cell-based; conditions: light or radiation study
HMLE [29] = test: Anticlonogenic activity against HMLE-shEcad cells at 0.5 to 1 uM irradiated at 350 nm at 4 hrs post compound addition for 5 mins for 5 mins measured after 24 hrs by crystal violet staining-based assay; assay type: functional, cell-based; conditions: Homo sapiens
[30] = Dark toxicity against human SUM159 cells after 72 hrs by MTT assay; assay type: cell-based, SUM-159-PT
[31] = Photocytotoxicity against HMLE-shEcad cells assessed as growth inhibition irradiated at 350 nm at 4, 24, 48 hrs post compound addition for 5 mins measured after 72 hrs by MTT assay; assay type: functional, cell-based; conditions: Homo sapiens, light or radiation study
[32] = Dark toxicity against human H460 cells after 72 hrs by MTT assay; assay type: cell-based, NCI-H460
HMLE [33] = test: Cytotoxicity against HMLE-shEcad cells at 10 uM irradiated at 420 nm at 4 hrs post compound addition for 5 mins measured after 48 hrs by propidium iodide staining-based flow cytometric method; assay type: functional, cell-based; conditions: Homo sapiens
[34] = Cell cycle arrest in HMLE-shGFP cells at 1 to 5 uM after 24 to 48 hrs in absence of irradiation by propidium iodide staining-based flow cytometric method; conditions: human
MCF7 [35] = test: Cell cycle arrest in human MCF7 cells in presence of irradiation; assay type: functional, cell-based

For `OCc1cc2cc3ccccc3cc2cc1O`, the IC50 [1] was 700 nM, the Drug uptake [2] was “Active” and the Activity (Calf thymus DNA [3]) was “Active”. The Drug uptake [4] was “Active”, the Drug uptake [5] was “Not Active” and the Activity [6] was “Toxic”. The Activity (HMLE [7]) was “Active”, the Activity (Calf thymus DNA [8]) was “inactive” and the IC50 (MCF7 [9]) was 3000 nM. For the same molecule, the Activity (Calf thymus DNA [10]) was “inactive”, the IC50 (HCT-116 [11]) was 1000 nM and the Drug uptake [12] was “Not Active”. For the same molecule, the IC50 at 72 h [13] was no less than 100000 nM, the IC50 (NCI-H460 [14]) was 15000 nM and the IC50 at 72 h [15] was no less than 100000 nM. For the same molecule, the IC50 [16] was 1000 nM, the Activity [17] was “Non-Toxic” and the Drug uptake [18] was “Active”. For the same molecule, the Drug uptake [19] was “Active”, the IC50 [20] was 1000 nM and the IC50 (NCI-H460 [21]) was 10000 nM. It also gave an IC50 (MCF7 [22]) of 2000 nM, an IC50 (HCT-116 [23]) of 2000 nM and an IC50 at 72 h [24] of 17000 nM. For the same molecule, the IC50 at 72 h [25] was 11000 nM, the Activity [26] was “Toxic” and the Activity (SUM-159-PT [27]) was “inactive”. For the same molecule, the IC50 (SUM-159-PT [28]) was 2000 nM, the Activity (HMLE [29]) was “Active” and the IC50 at 72 h [30] was 11000 nM. The IC50 [31] was 2000 nM, the IC50 at 72 h [32] was no less than 100000 nM and the Activity (HMLE [33]) was “Active”. The Activity [34] was “Non-Toxic” and the Activity (MCF7 [35]) was “inactive”.
